Experimental data: patent US8546608B2, “Proteasome inhibitors and methods of using the same” (Cephalon, Inc., priority 2003, dated 2013)
pEC50, pIC50: −log10 of the molar value.

Assays:
[1] = target: T1, 20S Human Erythrocyte Proteasome (HEP) (Homo sapiens, UniProt P20618+P28074); test: Chymotrypsin-like activity of 20S Human Erythrocyte Proteasome (HEP), IC50 determination; type: biochemical; conditions: assay of Example C, inhibition of HEP
T1 construct: 20S Human Erythrocyte Proteasome (HEP), purchased from Immatics Biotechnologies Inc; purchased Immatics Biotechnologies Inc., Tübingen, Germany; host or cells: human erythrocytes (natural source)
Outline: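 20S proteasome at 0.2 μg/mL (about 0.6 nM catalytic sites) in 20 mM Tris with 0.04% SDS, preincubated 15 min at 37° C with inhibitor before Suc-LLVY-AMC (100 μM final). AMC fluorescence read in the linear range; triplicates, IC50 from concentration series.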

[2] = target: T2, proteasome in Molt-4 cells (human leukemia) (Homo sapiens, UniProt P20618+P28074); type: cell-based; conditions: assay of Example E, inhibition of MOLT4; read-out: MOLT4 (EC50)
T2 sequence (P28074 60-263): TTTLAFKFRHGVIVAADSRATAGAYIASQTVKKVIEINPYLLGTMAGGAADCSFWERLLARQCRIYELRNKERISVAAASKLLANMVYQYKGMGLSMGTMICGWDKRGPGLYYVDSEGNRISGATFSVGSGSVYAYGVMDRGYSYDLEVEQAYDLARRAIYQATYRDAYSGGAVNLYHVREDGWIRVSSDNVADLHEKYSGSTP
T2 sequence (P20618 29-241): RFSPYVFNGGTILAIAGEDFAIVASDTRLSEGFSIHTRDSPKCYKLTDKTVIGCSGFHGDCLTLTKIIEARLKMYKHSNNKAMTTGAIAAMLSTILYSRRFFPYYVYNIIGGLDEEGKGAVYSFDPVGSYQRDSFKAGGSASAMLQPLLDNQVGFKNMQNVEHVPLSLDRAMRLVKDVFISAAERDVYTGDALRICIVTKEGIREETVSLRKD
Outline: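 Intact Molt-4 cells (6×10^6 cells/mL) in HEPES-buffered saline were preincubated with inhibitor 15 min at 37 °C, then given cell-permeable MeOSuc-FLF-AFC at 25 μM final.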

Row | SMILES | pIC50 [1] | pEC50 [2]
1 | CC(C)C[C@H](NC(=O)[C@H](CCCNC(=N)N[N+](=O)[O-])NC(=O)COc1ccc2ccccc2c1)B1O[C@@H]2C[C@@H]3C[C@@H](C3(C)C)[C@]2(C)O1 [D.3.27, 2-[(Naphthalen-2-yl)oxy]acetamide,N-[(1S)-1-[[[(1R)-1-[(3aS,4S,6S,7aR)-hexahydro-3a,5,5-trimethyl-4,6-methano-1,3,2-benzodioxaborol-2-yl]-3-methylbutyl]amino]carbonyl]-4-[[imino(nitroamino)methyl]amino]butyl]] | > 8.00 | > 6.70
2 | CC(C)C[C@H](NC(=O)[C@H](CCCNC(=N)N[N+](=O)[O-])NC(=O)Cc1ccccc1Cl)B1O[C@@H]2C[C@@H]3C[C@@H](C3(C)C)[C@]2(C)O1 [D.3.29, 2-(2-Chlorophenyl)acetamide,N-[(1S)-1-[[[(1R)-1-[(3aS,4S,6S,7aR)-hexahydro-3a,5,5-trimethyl-4,6-methano-1,3,2-benzodioxaborol-2-yl]-3-methylbutyl]amino]carbonyl]-4-[[imino(nitroamino)methyl]amino]butyl]] | > 8.00 | > 6.70
3 | COc1ccccc1/C=C\C(=O)N[C@@H](CCCNC(=N)N[N+](=O)[O-])C(=O)N[C@@H](CC(C)C)B1O[C@@H]2C[C@@H]3C[C@@H](C3(C)C)[C@]2(C)O1 [D.3.31, cis-3-(2-Methoxyphenyl)acrylamide,N-[(1S)-1-[[[(1R)-1-[(3aS,4S,6S,7aR)-hexahydro-3a,5,5-trimethyl-4,6-methano-1,3,2-benzodioxaborol-2-yl]-3-methylbutyl]amino]carbonyl]-4-[[imino(nitroamino)methyl]amino]butyl]] | > 7.00 | 5.70 to 6.70
4 | CC(C)C[C@H](NC(=O)[C@H](CCCNC(=N)N[N+](=O)[O-])NC(=O)/C=C/c1ccccc1Br)B1O[C@@H]2C[C@@H]3C[C@@H](C3(C)C)[C@]2(C)O1 [D.3.34] | > 8.00 | > 6.70
5 | Cc1ccc(CCCC(=O)N[C@@H](CCCNC(=N)N[N+](=O)[O-])C(=O)N[C@@H](CC(C)C)B2O[C@@H]3C[C@@H]4C[C@@H](C4(C)C)[C@]3(C)O2)cc1 [D.3.36, 4-(4-methylphenyl)butanamide,N-[(1S)-1-[[[(1R)-1-[(3aS,4S,6S,7aR)-hexahydro-3a,5,5-trimethyl-4,6-methano-1,3,2-benzodioxaborol-2-yl]-3-methylbutyl]amino]carbonyl]-4-[[imino(nitroamino)methyl]amino]butyl]] | > 8.00 | > 6.70
6 | CC(C)C[C@H](NC(=O)[C@H](CCCNC(=N)N[N+](=O)[O-])NC(=O)CSc1ccc2ccccc2c1)B1O[C@@H]2C[C@@H]3C[C@@H](C3(C)C)[C@]2(C)O1 [D.3.37] | > 8.00 | > 6.70
7 | CC(C)CCCC(=O)N[C@@H](CCCNC(=N)N[N+](=O)[O-])C(=O)N[C@@H](CC(C)C)B1O[C@@H]2C[C@@H]3C[C@@H](C3(C)C)[C@]2(C)O1 [D.3.38] | > 8.00 | > 6.70
8 | CC(C)C[C@H](NC(=O)[C@H](CCCNC(=N)N[N+](=O)[O-])NC(=O)CCc1cccs1)B1O[C@@H]2C[C@@H]3C[C@@H](C3(C)C)[C@]2(C)O1 [D.3.39, 3-Thiophen-2-yl-propanamide,N-[(1S)-1-[[[(1R)-1-[(3aS,4S,6S,7aR)-hexahydro-3a,5,5-trimethyl-4,6-methano-1,3,2-benzodioxaborol-2-yl]-3-methylbutyl]amino]carbonyl]-4-[[imino(nitroamino)methyl]amino]butyl]] | > 8.00 | > 6.70
9 | CC(C)C[C@H](NC(=O)[C@H](CCCNC(=N)N[N+](=O)[O-])NC(=O)CC1CCCCCC1)B1O[C@@H]2C[C@@H]3C[C@@H](C3(C)C)[C@]2(C)O1 [D.3.43] | > 8.00 | > 6.70
10 | CC(C)C[C@H](NC(=O)[C@H](CCCNC(=N)N[N+](=O)[O-])NC(=O)CCc1ccccc1)B1O[C@@H]2C[C@@H]3C[C@@H](C3(C)C)[C@]2(C)O1 [D.3.49, 3-Phenylpropanamide,N-[(1S)-1-[[[(1R)-1-[(3aS,4S,6S,7aR)-hexahydro-3a,5,5-trimethyl-4,6-methano-1,3,2-benzodioxaborol-2-yl]-3-methylbutyl]amino]carbonyl]-4-[[imino(nitroamino)methyl]amino]butyl]] | > 8.00 | 5.70 to 6.70
11 | COc1ccc(CCCC(=O)N[C@@H](CCCNC(=N)N[N+](=O)[O-])C(=O)N[C@@H](CC(C)C)B2O[C@@H]3C[C@@H]4C[C@@H](C4(C)C)[C@]3(C)O2)cc1 [D.3.50] | > 8.00 | > 6.70
12 | CC(C)C[C@H](NC(=O)[C@H](CCCNC(=N)N[N+](=O)[O-])NC(=O)COc1ccc(C(C)C)cc1)B1O[C@@H]2C[C@@H]3C[C@@H](C3(C)C)[C@]2(C)O1 [D.3.54] | > 8.00 | > 6.70
13 | CCc1ccc(OCC(=O)N[C@@H](CCCNC(=N)N[N+](=O)[O-])C(=O)N[C@@H](CC(C)C)B2O[C@@H]3C[C@@H]4C[C@@H](C4(C)C)[C@]3(C)O2)cc1 [D.3.55] | > 8.00 | > 6.70
14 | Cc1cccc(/C=C/C(=O)N[C@@H](CCCNC(=N)N[N+](=O)[O-])C(=O)N[C@@H](CC(C)C)B2O[C@@H]3C[C@@H]4C[C@@H](C4(C)C)[C@]3(C)O2)c1 [D.3.57, 3-(3-Methylphenyl)acrylamide,N-[(1S)-1-[[[(1R)-1-[(3aS,4S,6S,7aR)-hexahydro-3a,5,5-trimethyl-4,6-methano-1,3,2-benzodioxaborol-2-yl]-3-methylbutyl]amino]carbonyl]-4-[[imino(nitroamino)methyl]amino]butyl]] | > 8.00 | > 6.70
15 | CC(C)C[C@H](NC(=O)[C@H](CCCNC(=N)N[N+](=O)[O-])NC(=O)CC12CC3CC(CC(C3)C1)C2)B1O[C@@H]2C[C@@H]3C[C@@H](C3(C)C)[C@]2(C)O1 [D.3.58, 2-Adamantan-1-ylacetamide,N-[(1S)-1-[[[(1R)-1-[(3aS,4S,6S,7aR)-hexahydro-3a,5,5-trimethyl-4,6-methano-1,3,2-benzodioxaborol-2-yl]-3-methylbutyl]amino]carbonyl]-4-[[imino(nitroamino)methyl]amino]butyl]] | > 8.00 | > 6.70
16 | Cc1ccc(/C=C/C(=O)N[C@@H](CCCNC(=N)N[N+](=O)[O-])C(=O)N[C@@H](CC(C)C)B2O[C@@H]3C[C@@H]4C[C@@H](C4(C)C)[C@]3(C)O2)cc1 [D.3.62, 3-(4-Methylphenyl)acrylamide,N-[(1S)-1-[[[(1R)-1-[(3aS,4S,6S,7aR)-hexahydro-3a,5,5-trimethyl-4,6-methano-1,3,2-benzodioxaborol-2-yl]-3-methylbutyl]amino]carbonyl]-4-[[imino(nitroamino)methyl]amino]butyl]] | > 8.00 | > 6.70
17 | CC(C)C[C@H](NC(=O)[C@H](CCCNC(=N)N[N+](=O)[O-])NC(=O)c1ccc(-n2cccc2)cc1)B1O[C@@H]2C[C@@H]3C[C@@H](C3(C)C)[C@]2(C)O1 [D.3.64, 4-Pyrrol-1-yl-benzamide,N-[(1S)-1-[[[(1R)-1-[(3aS,4S,6S,7aR)-hexahydro-3a,5,5-trimethyl-4,6-methano-1,3,2-benzodioxaborol-2-yl]-3-methylbutyl]amino]carbonyl]-4-[[imino(nitroamino)methyl]amino]butyl]] | > 8.00 | > 6.70
18 | CCCC/C=C/C(=O)N[C@@H](CCCNC(=N)N[N+](=O)[O-])C(=O)N[C@@H](CC(C)C)B1O[C@@H]2C[C@@H]3C[C@@H](C3(C)C)[C@]2(C)O1 [D.3.66, Hept-2-enamide,N-[(1S)-1-[[[(1R)-1-[(3aS,4S,6S,7aR)-hexahydro-3a,5,5-trimethyl-4,6-methano-1,3,2-benzodioxaborol-2-yl]-3-methylbutyl]amino]carbonyl]-4-[[imino(nitroamino)methyl]amino]butyl]] | > 8.00 | > 6.70
19 | Cc1ccc(OCC(=O)N[C@@H](CCCNC(=N)N[N+](=O)[O-])C(=O)N[C@@H](CC(C)C)B2O[C@@H]3C[C@@H]4C[C@@H](C4(C)C)[C@]3(C)O2)cc1C [D.3.67, 2-(3,4-Dimethylphenoxy)acetamide,N-[(1S)-1-[[[(1R)-1-[(3aS,4S,6S,7aR)-hexahydro-3a,5,5-trimethyl-4,6-methano-1,3,2-benzodioxaborol-2-yl]-3-methylbutyl]amino]carbonyl]-4-[[imino(nitroamino)methyl]amino]butyl]] | > 8.00 | > 6.70
20 | CCCCCC/C=C/CC(=O)N[C@@H](CCCNC(=N)N[N+](=O)[O-])C(=O)N[C@@H](CC(C)C)B1O[C@@H]2C[C@@H]3C[C@@H](C3(C)C)[C@]2(C)O1 [D.3.70, (E)-Dec-3-enoic acid amide,N-[(1S)-1-[[[(1R)-1-[(3aS,4S,6S,7aR)-hexahydro-3a,5,5-trimethyl-4,6-methano-1,3,2-benzodioxaborol-2-yl]-3-methylbutyl]amino]carbonyl]-4-[[imino(nitroamino)methyl]amino]butyl]] | > 8.00 | > 6.70
21 | CC(C)C[C@H](NC(=O)[C@H](CCCNC(=N)N[N+](=O)[O-])NC(=O)CCCCC1CCCCC1)B1O[C@@H]2C[C@@H]3C[C@@H](C3(C)C)[C@]2(C)O1 [D.3.73] | > 8.00 | > 6.70
